According to US10597388B2, “Pyridazinone herbicides” (FMC CORPORATION, priority 2014, dated 2020):

Tests used:
Assay in all cases: Test C greenhouse herbicide test, pre- and postemergence
Type in all cases: in vivo
[1] = test system: barnyardgrass (Echinochloa crus-galli)
In short: (§1)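 Pre- and postemergence greenhouse screen; values are visual control ratings, 0 meaning no effect and 100 complete kill, assigned relative to untreated plants after 13 to 15 d.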

[2] = test system: foxtail, giant (giant foxtail, Setaria faberii)
In short: as §1

[3] = test system: pigweed (Amaranthus retroflexus)
In short: as §1

[4] = test system: ryegrass, Italian (Italian ryegrass, Lolium multiflorum)
In short: as §1

[5] = test system: lambsquarters (Chenopodium album)
In short: as §1

[6] = test system: ragweed (common ragweed, Ambrosia elatior)
In short: as §1

[7] = test system: oilseed rape (Brassica napus)
In short: as §1

[8] = test system: galium (catchweed bedstraw, Galium aparine)
In short: as §1

[9] = test system: nutsedge, yellow (yellow nutsedge, Cyperus esculentus)
In short: as §1

corn (Zea mays) = test system: corn (Zea mays)
In short: as §1

[10] = test system: blackgrass (Alopecurus myosuroides)
In short: as §1

[11] = test system: wheat (winter wheat, Triticum aestivum)
In short: as §1

soybean (Glycine max) = test system: soybean (Glycine max)
In short: as §1

[12] = test system: crabgrass, large (large crabgrass, Digitaria sanguinalis)
In short: as §1

[13] = test system: velvetleaf (Abutilon theophrasti)
In short: as §1

[14] = Postemergence, 31 g ai/ha, scale 0 to 100 (0 no effect, 100 complete control)
[15] = Postemergence, 62 g ai/ha, 0 to 100 scale (0 no effect, 100 complete control)
[16] = Postemergence, 250 g ai/ha, scale 0 to 100, 0 no effect, 100 complete control, 13 to 15 d
[17] = Preemergence, 31 g ai/ha, scale 0 to 100, 0 is no effect, 100 is complete control
[18] = Preemergence, 62 g ai/ha, scale 0 to 100, 0 is no effect, 100 is complete control
[19] = Preemergence, 125 g ai/ha, scale 0 to 100, 0 is no effect, 100 is complete control
[20] = Preemergence, 250 g ai/ha, scale 0 to 100, 0 no effect, 100 complete control
[21] = postemergence, 125 g ai/ha, scale 0 to 100, 0 no effect, 100 complete control

Compound: COC(=O)Oc1c(C)nn(C)c(=O)c1-c1ccc(Br)c2ccccc12 [Compound 145]
- Plant response rating, Barnyardgrass [1, 14]: 20
- Barnyardgrass plant response rating [1, 15]: 15
- Plant response rating, Barnyardgrass ([1]; Postemergence, 125 g ai/ha, scale 0 to 100, 0 is no effect, 100 is complete control): 30
- Plant response rating, Barnyardgrass [1, 16]: 70
- Plant response rating, Barnyardgrass [1, 17]: 10
- Plant response rating, Barnyardgrass [1, 18]: 35
- Plant response rating, Barnyardgrass [1, 19]: 75
- Barnyardgrass plant response rating [1, 20]: 95
- Plant response rating, Foxtail, Giant [2, 14]: 20
- Foxtail, Giant plant response rating [2, 15]: 25
- Plant response rating, Foxtail, Giant [2, 16]: 55
- Plant response rating, Foxtail, Giant [2, 17]: 35
- Plant response rating, Foxtail, Giant [2, 18]: 60
- Plant response rating, Foxtail, Giant [2, 19]: 75
- Foxtail, Giant plant response rating [2, 20]: 95
- Foxtail, Giant plant response rating [2, 21]: 25
- Plant response rating, Pigweed [3, 14]: 70
- Pigweed plant response rating [3, 15]: 100
- Plant response rating, Pigweed [3, 16]: 100
- Plant response rating, Pigweed [3, 17]: 70
- Plant response rating, Pigweed [3, 18]: 98
- Plant response rating, Pigweed [3, 19]: 100
- Pigweed plant response rating [3, 20]: 100
- Pigweed plant response rating [3, 21]: 75
- Plant response rating, Ryegrass, Italian [4, 14]: 5
- Ryegrass, Italian plant response rating [4, 15]: 15
- Plant response rating, Ryegrass, Italian [4, 16]: 40
- Plant response rating, Ryegrass, Italian [4, 17]: 100
- Plant response rating, Ryegrass, Italian [4, 18]: 100
- Plant response rating, Ryegrass, Italian [4, 19]: 100
- Ryegrass, Italian plant response rating [4, 20]: 100
- Ryegrass, Italian plant response rating [4, 21]: 30
- Plant response rating, Lambsquarters [5, 14]: 98
- Lambsquarters plant response rating [5, 15]: 98
- Plant response rating, Lambsquarters [5, 16]: 100
- Plant response rating, Lambsquarters [5, 17]: 90
- Plant response rating, Lambsquarters [5, 18]: 90
- Plant response rating, Lambsquarters [5, 19]: 100
- Lambsquarters plant response rating [5, 20]: 100
- Lambsquarters plant response rating [5, 21]: 100
- Plant response rating, Ragweed [6, 14]: 0
- Ragweed plant response rating [6, 15]: 0
- Plant response rating, Ragweed [6, 16]: 25
- Plant response rating, Ragweed [6, 17]: 55
- Plant response rating, Ragweed [6, 18]: 65
- Plant response rating, Ragweed [6, 19]: 85
- Ragweed plant response rating [6, 20]: 90
- Ragweed plant response rating [6, 21]: 5
- Plant response rating, Oilseed Rape [7, 14]: 98
- Oilseed Rape plant response rating [7, 15]: 98
- Plant response rating, Oilseed Rape [7, 16]: 90
- Plant response rating, Oilseed Rape [7, 17]: 5
- Plant response rating, Oilseed Rape [7, 18]: 90
- Plant response rating, Oilseed Rape [7, 19]: 90
- Oilseed Rape plant response rating [7, 20]: 98
- Oilseed Rape plant response rating [7, 21]: 95
- Plant response rating, Galium [8, 14]: 90
- Galium plant response rating [8, 15]: 95
- Plant response rating, Galium [8, 16]: 100
- Plant response rating, Galium [8, 17]: 90
- Plant response rating, Galium [8, 18]: 98
- Plant response rating, Galium [8, 19]: 100
- Galium plant response rating [8, 20]: 98
- Galium plant response rating [8, 21]: 98
- Plant response rating, Nutsedge, Yellow [9, 14]: 70
- Nutsedge, Yellow plant response rating [9, 15]: 90
- Plant response rating, Nutsedge, Yellow [9, 16]: 95
- Plant response rating, Nutsedge, Yellow [9, 17]: 35
- Plant response rating, Nutsedge, Yellow [9, 18]: 85
- Plant response rating, Nutsedge, Yellow [9, 19]: 95
- Nutsedge, Yellow plant response rating [9, 20]: 90
- Nutsedge, Yellow plant response rating [9, 21]: 85
- Plant response rating, Corn (corn (Zea mays); [14]): 10
- Corn plant response rating (corn (Zea mays); [15]): 5
- Plant response rating, Corn (corn (Zea mays); [16]): 10
- Plant response rating, Corn (corn (Zea mays); [17]): 0
- Plant response rating, Corn (corn (Zea mays); [18]): 0
- Plant response rating, Corn (corn (Zea mays); [19]): 0
- Corn plant response rating (corn (Zea mays); [20]): 15
- Corn plant response rating (corn (Zea mays); [21]): 5
- Plant response rating, Blackgrass [10, 14]: 5
- Blackgrass plant response rating [10, 15]: 0
- Plant response rating, Blackgrass [10, 16]: 90
- Plant response rating, Blackgrass [10, 17]: 10
- Plant response rating, Blackgrass [10, 18]: 30
- Plant response rating, Blackgrass [10, 19]: 60
- Blackgrass plant response rating [10, 20]: 60
- Blackgrass plant response rating [10, 21]: 30
- Plant response rating, Wheat [11, 14]: 40
- Wheat plant response rating [11, 15]: 50
- Plant response rating, Wheat [11, 16]: 90
- Plant response rating, Wheat [11, 17]: 0
- Plant response rating, Wheat [11, 18]: 0
- Plant response rating, Wheat [11, 19]: 0
- Wheat plant response rating [11, 20]: 5
- Wheat plant response rating [11, 21]: 85
- Plant response rating, Soybean (soybean (Glycine max); [14]): 40
- Soybean plant response rating (soybean (Glycine max); [15]): 40
- Plant response rating, Soybean (soybean (Glycine max); [16]): 70
- Plant response rating, Soybean (soybean (Glycine max); [17]): 0
- Plant response rating, Soybean (soybean (Glycine max); [18]): 55
- Plant response rating, Soybean (soybean (Glycine max); [19]): 75
- Soybean plant response rating (soybean (Glycine max); [20]): 80
- Soybean plant response rating (soybean (Glycine max); [21]): 55
- Plant response rating, Crabgrass, Large [12, 14]: 15
- Crabgrass, Large plant response rating [12, 15]: 10
- Plant response rating, Crabgrass, Large [12, 16]: 20
- Plant response rating, Crabgrass, Large [12, 17]: 5
- Plant response rating, Crabgrass, Large [12, 18]: 50
- Plant response rating, Crabgrass, Large [12, 19]: 55
- Crabgrass, Large plant response rating [12, 20]: 55
- Crabgrass, Large plant response rating [12, 21]: 10
- Plant response rating, Velvetleaf [13, 14]: 85
- Velvetleaf plant response rating [13, 15]: 90
- Plant response rating, Velvetleaf [13, 16]: 100
- Plant response rating, Velvetleaf [13, 17]: 40
- Plant response rating, Velvetleaf [13, 18]: 85
- Plant response rating, Velvetleaf [13, 19]: 95
- Velvetleaf plant response rating [13, 20]: 100
- Velvetleaf plant response rating [13, 21]: 98

Compound: CC(=O)Oc1c(Cl)nn(C)c(=O)c1-c1c(C)sc2ccc(C(F)(F)F)cc12 [Compound 152]
- Plant response rating, Barnyardgrass [1, 17]: 5
- Plant response rating, Barnyardgrass [1, 18]: 5
- Plant response rating, Barnyardgrass [1, 19]: 30
- Barnyardgrass plant response rating [1, 20]: 70
- Plant response rating, Foxtail, Giant [2, 17]: 0
- Plant response rating, Foxtail, Giant [2, 18]: 35
- Plant response rating, Foxtail, Giant [2, 19]: 65
- Foxtail, Giant plant response rating [2, 20]: 90
- Plant response rating, Pigweed [3, 17]: 80
- Plant response rating, Pigweed [3, 18]: 100
- Plant response rating, Pigweed [3, 19]: 100
- Pigweed plant response rating [3, 20]: 100
- Plant response rating, Ryegrass, Italian [4, 17]: 10
- Plant response rating, Ryegrass, Italian [4, 18]: 50
- Plant response rating, Ryegrass, Italian [4, 19]: 90
- Ryegrass, Italian plant response rating [4, 20]: 90
- Plant response rating, Lambsquarters [5, 17]: 50
- Plant response rating, Lambsquarters [5, 18]: 75
- Plant response rating, Lambsquarters [5, 19]: 90
- Lambsquarters plant response rating [5, 20]: 98
- Plant response rating, Ragweed [6, 17]: 85
- Plant response rating, Ragweed [6, 18]: 40
- Plant response rating, Ragweed [6, 19]: 75
- Ragweed plant response rating [6, 20]: 90
- Plant response rating, Oilseed Rape [7, 17]: 50
- Plant response rating, Oilseed Rape [7, 18]: 85
- Plant response rating, Oilseed Rape [7, 19]: 95
- Oilseed Rape plant response rating [7, 20]: 100
- Plant response rating, Galium [8, 17]: 50
- Plant response rating, Galium [8, 18]: 45
- Plant response rating, Galium [8, 19]: 95
- Galium plant response rating [8, 20]: 100
- Plant response rating, Nutsedge, Yellow [9, 17]: 5
- Plant response rating, Nutsedge, Yellow [9, 18]: 20
- Plant response rating, Nutsedge, Yellow [9, 19]: 55
- Nutsedge, Yellow plant response rating [9, 20]: 85
- Plant response rating, Corn (corn (Zea mays); [17]): 15
- Plant response rating, Corn (corn (Zea mays); [18]): 10
- Plant response rating, Corn (corn (Zea mays); [19]): 10
- Corn plant response rating (corn (Zea mays); [20]): 15
- Plant response rating, Blackgrass [10, 17]: 5
- Plant response rating, Blackgrass [10, 18]: 5
- Plant response rating, Blackgrass [10, 19]: 30
- Blackgrass plant response rating [10, 20]: 35
- Plant response rating, Wheat [11, 17]: 0
- Plant response rating, Wheat [11, 18]: 10
- Plant response rating, Wheat [11, 19]: 25
- Wheat plant response rating [11, 20]: 85
- Plant response rating, Soybean (soybean (Glycine max); [17]): 0
- Plant response rating, Soybean (soybean (Glycine max); [18]): 5
- Plant response rating, Soybean (soybean (Glycine max); [19]): 5
- Soybean plant response rating (soybean (Glycine max); [20]): 10
- Plant response rating, Crabgrass, Large [12, 17]: 0
- Plant response rating, Crabgrass, Large [12, 18]: 0
- Plant response rating, Crabgrass, Large [12, 19]: 10
- Crabgrass, Large plant response rating [12, 20]: 10
- Plant response rating, Velvetleaf [13, 17]: 15
- Plant response rating, Velvetleaf [13, 18]: 40
- Plant response rating, Velvetleaf [13, 19]: 65
- Velvetleaf plant response rating [13, 20]: 75
